Test results as given in ChEMBL document CHEMBL1201862, “PubChem BioAssay data set” (2004).
Calls of active or inactive are those of the source.

Assays:
[1] = target: T1, Heat shock factor protein 1 (Mus musculus, UniProt P38532); test: HSF1 potentiators in luciferase reporter cells, confirmation, cell-based, NIH3T3, luminescence, dose retest (AID 435004); type: functional;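 also: stress induced by proteasome inhibitor MG132 added 30 min after compound; luciferase reporter driven by HSF1 response element in NIH3T3 cells; actives raise luminescence as potentiators of the MG132 stress response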
T1 sequence (P38532 whole entry): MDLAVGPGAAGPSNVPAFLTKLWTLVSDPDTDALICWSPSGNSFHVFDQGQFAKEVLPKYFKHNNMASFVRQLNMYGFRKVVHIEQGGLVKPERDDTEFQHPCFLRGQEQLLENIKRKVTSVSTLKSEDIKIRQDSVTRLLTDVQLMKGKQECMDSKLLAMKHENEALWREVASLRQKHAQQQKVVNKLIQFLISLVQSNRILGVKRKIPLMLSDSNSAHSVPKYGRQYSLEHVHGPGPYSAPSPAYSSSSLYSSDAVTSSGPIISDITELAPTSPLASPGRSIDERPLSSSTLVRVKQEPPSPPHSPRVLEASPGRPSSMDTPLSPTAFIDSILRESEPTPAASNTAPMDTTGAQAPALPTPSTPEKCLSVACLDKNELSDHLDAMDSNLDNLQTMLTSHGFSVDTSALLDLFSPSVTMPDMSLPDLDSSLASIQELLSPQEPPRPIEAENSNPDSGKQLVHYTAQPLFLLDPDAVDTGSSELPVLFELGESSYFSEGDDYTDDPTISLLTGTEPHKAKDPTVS

[2] = target: T2, Replicative DNA helicase DnaB (Mycobacterium tuberculosis, UniProt P9WMR3); test: DnaB intein splicing inhibitors, dose response, biochemical, cell-free fluorescence (AID 449749); type: functional
T2 sequence (P9WMR3 whole entry): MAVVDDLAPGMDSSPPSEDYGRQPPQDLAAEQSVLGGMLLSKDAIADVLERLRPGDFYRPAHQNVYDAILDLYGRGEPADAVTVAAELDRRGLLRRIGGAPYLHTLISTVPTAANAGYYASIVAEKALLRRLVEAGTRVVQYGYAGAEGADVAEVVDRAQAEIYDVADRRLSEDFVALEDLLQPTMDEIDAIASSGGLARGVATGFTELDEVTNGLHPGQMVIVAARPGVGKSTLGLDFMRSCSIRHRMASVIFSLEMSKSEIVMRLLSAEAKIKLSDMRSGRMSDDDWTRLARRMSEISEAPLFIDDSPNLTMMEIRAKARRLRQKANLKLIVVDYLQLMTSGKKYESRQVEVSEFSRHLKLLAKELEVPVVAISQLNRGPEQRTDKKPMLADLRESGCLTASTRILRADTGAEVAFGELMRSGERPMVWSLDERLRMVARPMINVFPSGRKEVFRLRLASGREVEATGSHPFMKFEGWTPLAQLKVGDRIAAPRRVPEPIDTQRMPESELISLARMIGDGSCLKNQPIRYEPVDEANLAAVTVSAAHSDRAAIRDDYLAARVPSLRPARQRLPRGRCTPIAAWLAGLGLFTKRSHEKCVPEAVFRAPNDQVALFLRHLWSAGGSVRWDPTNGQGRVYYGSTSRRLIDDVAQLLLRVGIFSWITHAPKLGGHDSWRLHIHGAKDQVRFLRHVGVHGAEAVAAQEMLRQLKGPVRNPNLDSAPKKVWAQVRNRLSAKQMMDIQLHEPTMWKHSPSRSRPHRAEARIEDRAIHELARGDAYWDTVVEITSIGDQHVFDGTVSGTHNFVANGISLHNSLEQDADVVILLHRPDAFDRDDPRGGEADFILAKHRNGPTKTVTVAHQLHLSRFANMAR

[3] = target: T3, Protein RecA (Mycobacterium tuberculosis, UniProt P9WHJ3); test: Fluorescence Cell-Free Homogeneous Dose Retest to Identify Inhibitors of RecA-Intein Splicing Activity. [Related pubchem assays (depositor defined):AID2097, AID2223, AID489010, AID492950]; type: functional
T3 sequence (P9WHJ3 whole entry): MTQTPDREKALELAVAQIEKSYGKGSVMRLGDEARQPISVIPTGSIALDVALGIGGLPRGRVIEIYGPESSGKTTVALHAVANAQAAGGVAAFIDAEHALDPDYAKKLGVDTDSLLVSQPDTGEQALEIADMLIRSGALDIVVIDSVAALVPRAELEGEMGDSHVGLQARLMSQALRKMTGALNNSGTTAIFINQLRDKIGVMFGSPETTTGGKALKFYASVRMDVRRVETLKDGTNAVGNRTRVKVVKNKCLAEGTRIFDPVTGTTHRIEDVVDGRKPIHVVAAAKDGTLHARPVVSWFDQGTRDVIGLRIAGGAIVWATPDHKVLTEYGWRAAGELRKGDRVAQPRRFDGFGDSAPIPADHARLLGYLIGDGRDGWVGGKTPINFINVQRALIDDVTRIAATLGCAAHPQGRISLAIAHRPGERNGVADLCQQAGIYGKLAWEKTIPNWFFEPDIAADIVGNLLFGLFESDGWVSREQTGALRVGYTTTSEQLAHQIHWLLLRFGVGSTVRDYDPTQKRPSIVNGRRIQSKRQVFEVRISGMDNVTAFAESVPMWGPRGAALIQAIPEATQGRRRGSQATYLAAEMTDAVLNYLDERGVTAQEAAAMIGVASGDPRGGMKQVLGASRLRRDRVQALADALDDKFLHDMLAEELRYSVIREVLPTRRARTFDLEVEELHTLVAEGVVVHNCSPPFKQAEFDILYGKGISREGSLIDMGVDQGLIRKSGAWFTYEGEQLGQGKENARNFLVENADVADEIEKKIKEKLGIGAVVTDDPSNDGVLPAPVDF

[4] = test system: INS1; test: beta cell apoptosis inhibitors, cytokine rescue, dose response, luminescence, retest (AID 449756); type: functional, cell-based; details: Rattus norvegicus;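 also: cell death triggered by IL-1 beta plus TNF-alpha plus IFN-gamma mixture; protective hits raise ATP signal compared with cytokine alone wells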
[5] = cytotoxicity toward NIH3T3 fibroblasts, dose response, counter-screen, cell-based, ATP luminescence, mouse fibroblasts (AID 2010); type: functional;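 also: cells exposed to compound for about 90 hours before reading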
[6] = target: T4, Microphthalmia-associated transcription factor (Homo sapiens, UniProt O75030); test: TRPM1 promoter luciferase signal decrease, dose response, MITF inhibitor project, cell-based, SK-MEL-5, cherry-picked, set 3 (AID 493073); type: functional
T4 sequence (O75030 whole entry): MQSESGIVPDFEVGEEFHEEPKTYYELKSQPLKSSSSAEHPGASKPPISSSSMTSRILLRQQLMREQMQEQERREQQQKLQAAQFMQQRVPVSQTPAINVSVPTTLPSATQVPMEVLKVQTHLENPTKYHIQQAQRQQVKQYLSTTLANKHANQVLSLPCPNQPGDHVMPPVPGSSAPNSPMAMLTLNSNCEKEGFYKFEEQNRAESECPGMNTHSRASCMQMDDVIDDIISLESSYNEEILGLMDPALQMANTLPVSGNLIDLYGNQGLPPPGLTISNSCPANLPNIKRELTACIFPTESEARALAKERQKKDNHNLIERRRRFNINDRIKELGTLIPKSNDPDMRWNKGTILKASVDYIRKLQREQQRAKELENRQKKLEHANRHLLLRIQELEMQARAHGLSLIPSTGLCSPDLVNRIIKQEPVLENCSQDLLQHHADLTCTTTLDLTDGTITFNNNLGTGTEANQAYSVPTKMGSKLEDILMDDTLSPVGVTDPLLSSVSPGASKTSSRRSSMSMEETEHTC

[7] = inhibitors of intracellular T. cruzi replication, confirmation, NIH3T3 host cells, beta-gal luminescence (AID 2044); type: functional, cell-based;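 also: intracellular parasites grown in NIH/3T3 mouse fibroblasts as host cells; luminescent beta-galactosidase reporter signal from transgenic T. cruzi replicating inside host cells; inhibitors lower the luminescence signal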
[8] = Luminescence Cell-Based Dose Confirmation HTS to Identify Inhibitors of Platelet Dense Granule Release. [Related pubchem assays: 1663 (Primary HTS), 1678 (Summary of Project)]; type: functional
[9] = target: T5, Cytochrome P450 1A2 (Homo sapiens, UniProt P05177);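 also: PubChem cytochrome P450 panel assay, CYP1A2 panel member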
T5 sequence (P05177 whole entry): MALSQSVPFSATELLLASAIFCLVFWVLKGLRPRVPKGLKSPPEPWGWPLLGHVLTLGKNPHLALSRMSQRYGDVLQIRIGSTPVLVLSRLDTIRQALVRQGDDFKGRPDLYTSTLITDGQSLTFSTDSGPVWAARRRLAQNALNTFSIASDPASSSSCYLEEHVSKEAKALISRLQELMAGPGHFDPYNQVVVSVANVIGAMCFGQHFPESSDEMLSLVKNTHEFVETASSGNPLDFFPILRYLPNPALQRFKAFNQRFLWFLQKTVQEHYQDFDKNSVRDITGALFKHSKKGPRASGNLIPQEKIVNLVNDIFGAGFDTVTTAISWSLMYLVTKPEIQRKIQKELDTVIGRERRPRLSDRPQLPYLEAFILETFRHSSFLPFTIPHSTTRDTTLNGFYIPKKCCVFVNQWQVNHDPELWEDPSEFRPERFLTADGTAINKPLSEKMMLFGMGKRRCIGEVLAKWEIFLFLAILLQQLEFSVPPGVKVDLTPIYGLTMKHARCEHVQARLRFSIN

[10] = target: Luciferin 4-monooxygenase (Photinus pyralis, UniProt P08659); test: firefly luciferase enzyme inhibitors, dose response, biochemical, luminescence (AID 1891)
Luciferin 4-monooxygenase, sequence (P08659 whole entry): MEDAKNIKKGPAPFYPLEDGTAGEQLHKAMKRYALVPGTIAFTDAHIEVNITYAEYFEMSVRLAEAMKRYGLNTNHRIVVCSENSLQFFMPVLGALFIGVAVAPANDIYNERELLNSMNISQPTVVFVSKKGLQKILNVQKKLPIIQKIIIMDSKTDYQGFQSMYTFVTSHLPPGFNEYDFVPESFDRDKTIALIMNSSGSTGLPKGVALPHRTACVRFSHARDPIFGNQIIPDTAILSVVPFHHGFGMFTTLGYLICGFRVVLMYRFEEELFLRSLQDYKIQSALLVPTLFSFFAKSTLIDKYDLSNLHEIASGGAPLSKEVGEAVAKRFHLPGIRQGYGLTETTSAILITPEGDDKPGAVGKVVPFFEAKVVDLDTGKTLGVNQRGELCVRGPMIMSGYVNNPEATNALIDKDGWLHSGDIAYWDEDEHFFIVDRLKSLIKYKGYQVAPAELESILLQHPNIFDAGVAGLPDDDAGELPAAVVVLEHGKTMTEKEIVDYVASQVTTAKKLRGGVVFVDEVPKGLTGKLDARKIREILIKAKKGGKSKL

[11] = target: Paired box protein Pax-8 (Homo sapiens, UniProt Q06710); test: inhibitors of PAX8-driven TPO luciferase reporter, dose response, RMG-I cells, cherry-pick (AID 687027); type: functional, cell-based;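 also: luciferase reporter driven by Pax8 target thyroperoxidase promoter measured by SteadyGlo luminescence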
Paired box protein Pax-8, sequence (Q06710 whole entry): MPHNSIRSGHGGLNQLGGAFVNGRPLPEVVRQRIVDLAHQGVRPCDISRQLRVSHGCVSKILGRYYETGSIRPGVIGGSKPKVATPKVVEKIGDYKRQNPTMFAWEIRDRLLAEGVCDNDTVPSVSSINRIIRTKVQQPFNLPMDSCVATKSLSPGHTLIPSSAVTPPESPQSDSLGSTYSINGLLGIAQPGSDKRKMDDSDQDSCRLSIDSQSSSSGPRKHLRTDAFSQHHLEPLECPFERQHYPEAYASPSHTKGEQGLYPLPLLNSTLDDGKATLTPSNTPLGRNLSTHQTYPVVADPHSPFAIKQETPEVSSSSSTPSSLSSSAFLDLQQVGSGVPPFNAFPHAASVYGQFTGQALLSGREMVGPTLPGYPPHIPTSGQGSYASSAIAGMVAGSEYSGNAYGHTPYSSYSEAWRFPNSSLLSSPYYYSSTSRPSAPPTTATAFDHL

[12] = target: Nonstructural protein 1 (Influenza A virus, UniProt Q194T2); type: functional, Influenza A virus (A/California/07/2009(H1N1))
Nonstructural protein 1, sequence (Q194T2 whole entry): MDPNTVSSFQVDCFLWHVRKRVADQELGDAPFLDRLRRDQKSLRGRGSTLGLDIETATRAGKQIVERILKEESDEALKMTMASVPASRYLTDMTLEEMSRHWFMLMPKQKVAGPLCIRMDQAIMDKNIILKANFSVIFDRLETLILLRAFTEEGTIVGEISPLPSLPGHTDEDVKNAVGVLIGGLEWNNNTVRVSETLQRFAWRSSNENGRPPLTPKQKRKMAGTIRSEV

[13] = target: T1, Heat shock factor protein 1; test: inhibition of MG132-induced HSE-luciferase signal, confirmation, cell-based, NIH3T3, luminescence, dose retest (AID 2382); type: functional;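 also: NIH3T3 fibroblasts with HSF1-driven luciferase reporter stressed by proteasome inhibitor MG132; luminescence from HSF1-driven luciferase expression after 8 hours of MG132 stress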
[14] = target: Large T antigen (Simian virus 40, UniProt P03070); type: functional, Betapolyomavirus macacae;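 also: Confirmatory-stage PubChem screen for compounds that inhibit SV40 T antigen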
Large T antigen, sequence (P03070 whole entry): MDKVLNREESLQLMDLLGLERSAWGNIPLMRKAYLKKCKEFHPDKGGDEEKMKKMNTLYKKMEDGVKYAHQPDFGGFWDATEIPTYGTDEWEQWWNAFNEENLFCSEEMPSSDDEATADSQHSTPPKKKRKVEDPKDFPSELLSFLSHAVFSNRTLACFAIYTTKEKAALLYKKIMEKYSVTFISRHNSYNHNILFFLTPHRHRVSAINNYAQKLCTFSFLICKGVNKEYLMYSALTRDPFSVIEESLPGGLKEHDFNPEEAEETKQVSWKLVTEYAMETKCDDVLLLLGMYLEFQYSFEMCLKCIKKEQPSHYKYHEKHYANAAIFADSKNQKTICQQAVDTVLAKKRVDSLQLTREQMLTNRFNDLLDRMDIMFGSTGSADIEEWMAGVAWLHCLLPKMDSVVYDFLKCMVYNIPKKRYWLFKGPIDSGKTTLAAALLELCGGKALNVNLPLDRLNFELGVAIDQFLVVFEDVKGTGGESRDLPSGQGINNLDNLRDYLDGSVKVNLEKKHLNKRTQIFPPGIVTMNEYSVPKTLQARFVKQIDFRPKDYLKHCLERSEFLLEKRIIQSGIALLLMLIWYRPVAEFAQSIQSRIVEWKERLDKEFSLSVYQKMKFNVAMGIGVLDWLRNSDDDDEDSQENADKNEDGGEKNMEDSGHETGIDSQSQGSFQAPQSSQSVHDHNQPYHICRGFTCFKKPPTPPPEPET

[15] = target: T6, Rac GTPase-activating protein 1 (Homo sapiens, UniProt Q9H0H5); test: MgcRacGAP GTPase-activating activity inhibitors, confirmation, biochemical, ADP Hunter fluorescence, primary and confirmatory (AID 624330); type: functional
T6 sequence (Q9H0H5 whole entry): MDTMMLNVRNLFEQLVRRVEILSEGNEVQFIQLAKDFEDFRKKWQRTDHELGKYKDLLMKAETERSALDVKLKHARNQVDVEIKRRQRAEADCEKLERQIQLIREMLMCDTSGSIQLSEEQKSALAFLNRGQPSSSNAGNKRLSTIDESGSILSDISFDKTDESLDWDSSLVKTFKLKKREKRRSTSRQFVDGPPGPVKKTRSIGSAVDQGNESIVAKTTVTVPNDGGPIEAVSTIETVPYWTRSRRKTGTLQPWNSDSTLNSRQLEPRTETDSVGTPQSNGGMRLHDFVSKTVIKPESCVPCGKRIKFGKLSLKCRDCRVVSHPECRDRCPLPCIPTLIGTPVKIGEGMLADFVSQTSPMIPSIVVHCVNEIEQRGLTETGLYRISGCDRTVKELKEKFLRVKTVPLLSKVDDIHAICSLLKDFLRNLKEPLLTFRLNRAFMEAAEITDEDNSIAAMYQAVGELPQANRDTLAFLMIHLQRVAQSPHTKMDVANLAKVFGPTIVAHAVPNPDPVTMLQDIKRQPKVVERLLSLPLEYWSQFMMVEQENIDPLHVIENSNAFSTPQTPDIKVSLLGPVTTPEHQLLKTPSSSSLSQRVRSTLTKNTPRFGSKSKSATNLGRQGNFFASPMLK

Cc1ccc(O)c(NC(=O)CSc2n[nH]c(-c3ccccc3)n2)c1
EC50 [1]: 10 µM (active)

O=C(c1ccc(N2CCN(CCO)CC2)nc1)N1CCOCC1
AC50 [2]: > 380 µM (inactive) | EC50 [3]: > 380 µM (inactive)

CSc1sc(C(=O)Nc2ccc(F)cc2F)c2c1C=CCC2
EC50 [1]: > 260 µM (inactive)

COc1ccc(CCNC(=O)Nc2cccc([N+](=O)[O-])c2)cc1OC
EC50 [1]: > 260 µM (inactive)

O=C(N/N=C/C=C(\O)c1ccc([N+](=O)[O-])cc1)c1ccccc1
AC50 [4]: 1.76 µM (active) | EC50 [5]: 17.6 µM (active) | AC50 [6]: 9.19 µM (active) | EC50 [7]: 2.02 µM (active)

COc1cc(/C=N/NC(N)=O)c(Br)cc1OCC(=O)Nc1ccccc1C
EC50 [8]: > 112 µM (not active) | AC50 [6]: 17.8 µM (active) | AC50 [9]: 14.1 µM (inconclusive) | EC50 [10]: > 112 µM (not active)

CC1CN(C(=S)NC(=O)C2CCCCC2)CC(C)O1 (centres undefined)
EC50 [1]: > 260 µM (inactive)

CC(C)OC(=O)c1c(NC(=O)Cn2cnc([N+](=O)[O-])n2)sc2c1CCCC2
EC50 [5]: > 60 µM (not active) | EC50 [7]: 0.203 µM (active) | EC50 [1]: > 260 µM (inactive)

O=C1C=CC(=C(c2ccc(O)cc2)c2ccc(O)cc2)C=C1 [AURIN]
AC50 [6]: 9.92 µM (active) | AC50 [11]: 8.81 µM (active) | IC50 [12]: 59.1 µM (active)

Cc1ccc(-n2cc(CNCCN3CCOC3=O)c(-c3cccc(C)c3)n2)cc1
EC50 [1]: > 260 µM (inactive)

COc1cc(C(=O)NCC(=O)N/N=C/c2cccc(OC(=O)c3ccco3)c2)cc(OC)c1OC
AC50 [2]: 36 µM (active) | EC50 [3]: 16.6 µM (active)

C=C1CCC[C@]2(C)C[C@H]3OC(=O)C(CN4CCCCC4CO)[C@H]3CC12 (some centres undefined)
AC50 [6]: 11 µM (active)

CCC(=O)N1CCN(c2ccc(NC(=O)c3ccc([N+](=O)[O-])o3)cc2)CC1
EC50 [13]: > 195 µM (not active) | EC50 [5]: 7.54 µM (active) | AC50 [6]: 8.68 µM (active) | AC50 [11]: 5.31 µM (active) | EC50 [7]: 5.98 µM (active)

CN(C)c1ccc(NC2=C([N+](=O)[O-])CS(=O)(=O)C2)cc1
IC50 [14]: 5.71 µM (active) | IC50 [15]: 42.7 µM (active)

Cc1cccc2sc(N(CCCN(C)C)C(=O)c3nc4ccccc4s3)nc12
AC50 [6]: 10.9 µM (active)

O=c1c2ccccc2nc(SCc2nnc(-c3ccccc3Br)o2)n1Cc1ccco1
EC50 [1]: > 260 µM (inactive)

CC1=NN(c2ccccc2)C(=O)C1=C(C)C
AC50 [2]: 5.6 µM (active) | EC50 [3]: 2.46 µM (active)

CCCc1n[nH]c(O)c1C(c1ccc(Cl)cc1)C(C#N)C#N (centres undefined)
AC50 [2]: 8.44 µM (active) | EC50 [3]: 4.14 µM (active)

C/C(CC(=O)Nc1cc(C)ccn1)=N\NC(=O)c1ccncc1
AC50 [2]: 7.32 µM (active) | EC50 [3]: 4.03 µM (active)
